Assay results published in ChEMBL document CHEMBL1201862, “PubChem BioAssay data set” (2004).
Calls of active or inactive are those of the source.

How the values were obtained:
[1] = antimalarial activity against Dd2 parasites – SYBR Green fluorescence, erythrocytes, dry powder, set 2, dose response (AID 1159574); type: functional, cell-based
[2] = target: G-protein coupled receptor 183 (Homo sapiens, UniProt P32249); assay: SAR confirmation of small molecule antagonists of the EBI2 receptor via a luminescent beta-arrestin assa.; type: functional
Sequence of G-protein coupled receptor 183 (P32249 whole entry): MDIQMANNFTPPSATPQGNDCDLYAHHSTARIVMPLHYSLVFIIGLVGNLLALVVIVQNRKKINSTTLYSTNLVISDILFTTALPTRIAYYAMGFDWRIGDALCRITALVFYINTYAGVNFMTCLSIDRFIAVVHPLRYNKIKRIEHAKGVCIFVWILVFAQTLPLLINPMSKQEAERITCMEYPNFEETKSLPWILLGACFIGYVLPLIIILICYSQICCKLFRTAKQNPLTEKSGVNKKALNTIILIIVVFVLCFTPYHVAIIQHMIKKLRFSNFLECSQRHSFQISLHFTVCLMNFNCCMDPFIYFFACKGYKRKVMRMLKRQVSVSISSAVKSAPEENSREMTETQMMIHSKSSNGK

[3] = Luminescence Cell-Based Dose Confirmation HTS to Identify Activators of 5'UTR Stem-Loop Driven Alpha-Synuclein mRNA Translation in H4 Neuroglioblastoma Cells. [Related pubchem assays: 1829 (Project Summary), 1814 (Primary HTS)]; type: functional
[4] = Luminescence Cell-Based Dose Response HTS to Identify Activators of Luciferase Translation or Activity in H4 […] Cells. [Related pubchem assays: 1829 (Project Summary), 1814 (Primary HTS)]; type: functional
H4 = assay: Luminescence Cell-Based Dose Response HTS to Identify Activators of 5'UTR Stem-Loop Driven Prion Protein mRNA Translation in H4 Neuroglioblastoma Cells. [Related pubchem assays: 1829 (Project Summary), 1814 (Primary HTS)]; type: functional; conditions: Homo sapiens
Galanin receptor type 2 = Galanin receptor type 2 (Homo sapiens, UniProt O43603); assay: Dose Response cell-based high-throughput screening assay to identify antagonists of galanin receptor 2 (GALR2). [Related pubchem assays: 828, 866 ]; type: functional
Sequence of Galanin receptor type 2 (O43603 whole entry): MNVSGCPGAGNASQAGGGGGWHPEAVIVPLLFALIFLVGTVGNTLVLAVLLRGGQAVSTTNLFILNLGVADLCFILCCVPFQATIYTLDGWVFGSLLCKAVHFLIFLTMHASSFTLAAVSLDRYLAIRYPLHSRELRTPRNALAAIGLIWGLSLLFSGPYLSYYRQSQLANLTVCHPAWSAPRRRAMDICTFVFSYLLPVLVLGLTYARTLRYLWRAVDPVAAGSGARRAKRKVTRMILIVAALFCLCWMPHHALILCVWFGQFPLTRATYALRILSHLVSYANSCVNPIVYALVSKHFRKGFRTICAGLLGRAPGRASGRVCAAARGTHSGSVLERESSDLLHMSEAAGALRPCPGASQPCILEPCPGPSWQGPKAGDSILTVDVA

[5] = viability of PTEN-deleted HCT116 cells – cell-based, HCT116 PTEN knockout, dose response (AID 1047); type: functional;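 note: HCT116 colon tumor cells with PTEN knocked out; cells exposed to compound for 60 hours before readout; potency for loss of cell viability measured by luminescence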
BJ [6] = assay: BJ-TERT fibroblast viability loss – cell-based, RAS-independent, luminescence, dose response (AID 1933); type: functional; conditions: Homo sapiens
BJ [7] = assay: BJ-TERT-LT-ST fibroblast viability loss – cell-based, RAS-independent, luminescence, dose response (AID 1935); type: functional; conditions: Homo sapiens;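 note: BJ fibroblasts immortalized with TERT plus LT and ST oncogenes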
[8] = DRD fibroblast viability loss – cell-based, non-viral oncogenic, luminescence, dose response (AID 1934); type: functional; conditions: Homo sapiens
[9] = Luminescence Cell-Based Dose Confirmation HTS to Identify Inhibitors of Polyadenylation.; type: functional
INS1 = assay: INS-1E survival protection against cytokine death – cell-based, luminescence, retest, dose response (AID 449756); type: functional; conditions: Rattus norvegicus;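 note: cell death triggered by IL-1 beta plus TNF-alpha plus IFN-gamma mixture; protective hits raise ATP signal compared with cytokine alone wells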
BJ [10] = assay: cells; type: functional, cell-based; conditions: Homo sapiens
[11] = viability of HCT116 lacking mutant beta-catenin – cell-based, human colon tumor, dose response (AID 1045); type: functional;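 note: HCT116 colon tumor cells with beta catenin knocked out; cells exposed to compound for 60 hours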
HeLa = assay: ATP-based viability loss in HeLa cells – cell-based, CellTiter-Glo luminescence, cherry-pick samples, cytotoxicity control for MITF activator project, dose response (AID 540259); type: functional; conditions: Homo sapiens
[12] = A cytotoxicity screen of small molecule inhibitors of the PhoP region in Salmonella typhi identified in the primary screen. [Related pubchem assays: 1850, 1864, 1985 ]; type: functional
[13] = M. tuberculosis growth inhibition, HTS (AID 449762); type: functional
H9c2 = assay: cells; type: functional, cell-based; conditions: Rattus norvegicus, H9c2, Myocardium
cells = type: functional, cell-based; conditions: INS-1E
[14] = IC50 of insulin release inhibition, rat insulinoma INS-1E line, 5 mM glucose, cell-based (AID 1117331); type: functional
[15] = target: T1, Low molecular weight phosphotyrosine protein phosphatase (Homo sapiens, UniProt P24666); assay: inhibition of human LMPTP enzyme activity – biochemical, absorbance, pNPP substrate, LMPTP-A isoform, set 2, orthogonal assay, dose response (AID 743308); type: functional
T1 sequence (P24666 whole entry): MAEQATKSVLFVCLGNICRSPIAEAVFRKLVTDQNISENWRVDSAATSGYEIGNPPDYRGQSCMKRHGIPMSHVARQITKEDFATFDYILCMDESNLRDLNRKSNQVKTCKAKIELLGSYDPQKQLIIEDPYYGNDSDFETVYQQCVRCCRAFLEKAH

[16] = target: T1, Low molecular weight phosphotyrosine protein phosphatase; assay: inhibition of LMPTP-A enzymatic activity – biochemical, OMFP substrate, fluorescence intensity, set 2, dose response (AID 743307); type: functional
HEK293 [17] = assay: cells; conditions: Homo sapiens
HEK293 [18] = assay: cells; conditions: Homo sapiens; remark: listed apart in the source
[19] = target: Mitogen-activated protein kinase 10 (Homo sapiens, UniProt P53779); assay: Dose response biochemical screening assay for inhibitors of c-Jun N-Terminal Kinase 3 (JNK3). [Related pubchem assays: 746 ]
Sequence of Mitogen-activated protein kinase 10 (P53779 whole entry, the tested form may be a part): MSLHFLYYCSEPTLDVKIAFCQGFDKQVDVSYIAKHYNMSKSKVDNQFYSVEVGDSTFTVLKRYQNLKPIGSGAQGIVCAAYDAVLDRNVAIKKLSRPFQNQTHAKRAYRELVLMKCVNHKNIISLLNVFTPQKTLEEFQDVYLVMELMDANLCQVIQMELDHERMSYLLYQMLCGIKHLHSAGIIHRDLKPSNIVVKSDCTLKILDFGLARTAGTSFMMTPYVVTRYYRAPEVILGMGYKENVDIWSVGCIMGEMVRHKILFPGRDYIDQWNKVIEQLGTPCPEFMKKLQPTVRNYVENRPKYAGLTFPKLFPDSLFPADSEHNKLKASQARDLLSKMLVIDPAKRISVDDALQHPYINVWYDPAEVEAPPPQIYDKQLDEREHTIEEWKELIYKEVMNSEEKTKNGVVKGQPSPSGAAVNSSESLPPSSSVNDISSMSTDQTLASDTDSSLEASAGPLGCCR

[20] = target: T2, Carboxy-terminal domain RNA polymerase II polypeptide A small phosphatase 1 (Homo sapiens, UniProt Q9GZU7); assay: CTDSP1 inhibitors, concentration-response, biochemical, absorbance readout, ultra-high-throughput screen actives (AID 540297); type: functional
T2 sequence (Q9GZU7 whole entry): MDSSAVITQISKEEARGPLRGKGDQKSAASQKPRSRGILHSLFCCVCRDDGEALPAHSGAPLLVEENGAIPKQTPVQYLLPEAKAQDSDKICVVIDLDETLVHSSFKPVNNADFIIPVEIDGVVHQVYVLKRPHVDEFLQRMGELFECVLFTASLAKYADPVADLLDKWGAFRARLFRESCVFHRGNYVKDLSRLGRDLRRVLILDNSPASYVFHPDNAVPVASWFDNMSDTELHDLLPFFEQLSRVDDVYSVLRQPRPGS

[21] = target: T3, Small ubiquitin-related modifier 1 (Homo sapiens, UniProt P63165); assay: SUMO1 protein interaction blockers, potency – biochemical, fluorescence polarization, uHTS hits, dose response (AID 624382); type: functional; conditions: read-out: IC50_Mean
T3 sequence (P63165 whole entry): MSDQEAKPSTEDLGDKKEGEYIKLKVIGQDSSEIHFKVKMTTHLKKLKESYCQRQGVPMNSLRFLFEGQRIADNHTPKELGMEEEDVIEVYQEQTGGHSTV

[22] = target: Glutathione-S-transferase (Schistosoma japonicum, UniProt Q26513); assay: GST-antibody interaction or FRET quenching – biochemical, TR-FRET, artefact control for Vif-APOBEC3G degradation inhibitor project, dose response (AID 1117362); type: functional
Sequence of Glutathione-S-transferase (Q26513 whole entry): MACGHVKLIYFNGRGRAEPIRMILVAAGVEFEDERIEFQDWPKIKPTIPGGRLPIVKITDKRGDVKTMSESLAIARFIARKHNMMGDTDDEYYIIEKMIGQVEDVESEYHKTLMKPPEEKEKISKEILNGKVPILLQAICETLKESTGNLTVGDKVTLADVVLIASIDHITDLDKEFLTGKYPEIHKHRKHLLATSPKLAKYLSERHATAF

[23] = target: T3, Small ubiquitin-related modifier 1; assay: SUMO1 protein-protein binding blockers, potency – biochemical, FRET, dose response (AID 624383); type: functional; conditions: read-out: IC50_Mean
ELAV-like protein 1 = ELAV-like protein 1 (Homo sapiens, UniProt Q15717); assay: Identify HuR specific inhibitors.; type: functional
Sequence of ELAV-like protein 1 (Q15717 whole entry): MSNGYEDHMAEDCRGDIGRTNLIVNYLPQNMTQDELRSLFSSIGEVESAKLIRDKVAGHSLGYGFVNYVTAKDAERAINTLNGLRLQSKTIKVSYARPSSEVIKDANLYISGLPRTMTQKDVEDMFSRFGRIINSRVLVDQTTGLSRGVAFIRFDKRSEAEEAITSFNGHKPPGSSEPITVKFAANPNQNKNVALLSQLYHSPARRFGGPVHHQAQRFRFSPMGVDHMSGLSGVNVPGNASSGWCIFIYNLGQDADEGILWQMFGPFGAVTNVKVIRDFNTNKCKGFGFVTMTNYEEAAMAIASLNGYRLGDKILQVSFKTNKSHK

## COc1ccc(NC(=O)N2CCCCN3[C@@H](CO)[C@H](c4ccc(C#Cc5ccccc5)cc4)[C@@H]3C2)cc1
[1]
  AC50: 0.036 µM (active)

## CCCCN1CCN(C(=O)/C=C/c2ccc(Br)cc2)CC1
[2]
  IC50: 0.0021 µM (active)

## N#C/C(=C\c1cccs1)c1nc2ccccc2[nH]1
[3]
  EC50: 2.67 µM (active)
[4]
  EC50: 26.6 µM (active)
H4
  EC50: 15.8 µM (active)
Galanin receptor type 2
  IC50: > 42 µM (not active)

## N#C/C(=C\c1ccc([N+](=O)[O-])o1)c1nc2ccccc2[nH]1
[5]
  EC50: 0.985 µM (active)
BJ [6]
  EC50: 2.27 µM (inconclusive)
BJ [7]
  EC50: > 150 µM (inconclusive)
[8]
  EC50: 5.9 µM (inconclusive)
[9]
  EC50: 3.64 µM (active)
INS1
  AC50: 3.02 µM (active)
BJ [10]
  EC50: > 150 µM (inconclusive)
[11]
  EC50: 1.01 µM (active)

## Nc1ccc(N=Nc2ccccc2)c(N)n1
HeLa
  AC50: 36 µM (active)
[12]
  EC50: > 50 µM (active)
[13]
  IC50: > 100 µM (active)

## O=c1[nH]c2ccccc2n1CCCN1CCC(n2c(=O)[nH]c3cc(Cl)ccc32)CC1 [DOMPERIDONE]
H9c2
  IC50: > 79 µM (inactive)
cells
  IC50: > 33.3 µM (inactive)
[14]
  IC50: 12.4 µM (inactive)

## COc1cccc(-c2cc(NCCCN3CCCCC3)c3ccccc3n2)c1
[15]
  IC50: 4.89 µM (active)
[16]
  IC50: 2.21 µM (active)

## COc1cc(C2NC(=O)NC(C)=C2C(=O)OCc2ccccc2)ccc1O (stereo not given)
HEK293 [17]
  EC50: > 59.6 µM (inactive)
HEK293 [18]
  EC50: > 59.6 µM (inactive)
[19]
  IC50: > 93.1 µM (not active)

## CCOC(=O)C(=O)Cc1cccnn1
[20]
  IC50: 4.08 µM (active)
[21]
  IC50: > 66.6 µM (inactive)
[22]
  IC50: > 100 µM (active)
[23]
  IC50: 6.34 µM (active)
ELAV-like protein 1
  IC50: 4.6 µM (inactive)
